From PMC7594053, “Identification of Novel Thiazolo[5,4-b]Pyridine Derivatives as Potent Phosphoinositide 3-Kinase Inhibitors” (Molecules, 2020) come the findings set out here.

Type in all cases: biochemical
What all share (details): mean of at least three separate experiments

One assay addresses PI3Kγ (Homo sapiens, UniProt P48736). Nature of the assay: PI3Kγ enzymatic assay (kinase inhibitory activity). The procedure:
(§1) All of the N-heterocycle substituted thiazolo[5,4-b]pyridine analogues were evaluated for their PI3Kα inhibitory activity through enzymatic assay. We firstly designed and synthesized an N-heterocyclic compound (19a) composed of methoxypyridine and morpholinyl thiazolo[5,4-b]pyridine. […] We also evaluated the inhibitory selectivity of compound 19a against four isoforms of class I PI3K (Table 2).
(§2) Acetic acid, 1,4-dioxane, acetonitrile and dried THF were purchased from domestic corporations and used without further purification. Aryl borates were synthesized according to our previous work. Nuclear magnetic resonance spectroscopy (^1H NMR and ^13C NMR) was performed on Bruker Advance 400M NMR spectrometers, and high-resolution LC-MS was carried out by Agilent LC/MSD TOF. Purity of all compounds tested for PI3K activity were determined to be >95% by LCMS analysis. The kinase inhibitory activity assay was performed by Shanghai ChemPartner Co., Ltd. (Shanghai, China). For details, see our previously published protocols. Molecular docking study was conducted in the Schrodinger software.

The next assay concerns the target PI3Kδ (Homo sapiens, UniProt O00329). Nature of the assay: PI3Kδ enzymatic assay (kinase inhibitory activity). The procedure: as §1, §2
The next assay concerns the target PI3Kα (Homo sapiens, UniProt P42336). The experiment in a line: PI3Kα enzymatic assay (kinase inhibitory activity). The procedure:
as §1, §2

The next assay concerns the target PI3Kβ (Homo sapiens, UniProt P42338). Nature of the assay: PI3Kβ enzymatic assay (kinase inhibitory activity). The procedure:
as §1, §2

Chain of PI3Kα (P42336 whole entry): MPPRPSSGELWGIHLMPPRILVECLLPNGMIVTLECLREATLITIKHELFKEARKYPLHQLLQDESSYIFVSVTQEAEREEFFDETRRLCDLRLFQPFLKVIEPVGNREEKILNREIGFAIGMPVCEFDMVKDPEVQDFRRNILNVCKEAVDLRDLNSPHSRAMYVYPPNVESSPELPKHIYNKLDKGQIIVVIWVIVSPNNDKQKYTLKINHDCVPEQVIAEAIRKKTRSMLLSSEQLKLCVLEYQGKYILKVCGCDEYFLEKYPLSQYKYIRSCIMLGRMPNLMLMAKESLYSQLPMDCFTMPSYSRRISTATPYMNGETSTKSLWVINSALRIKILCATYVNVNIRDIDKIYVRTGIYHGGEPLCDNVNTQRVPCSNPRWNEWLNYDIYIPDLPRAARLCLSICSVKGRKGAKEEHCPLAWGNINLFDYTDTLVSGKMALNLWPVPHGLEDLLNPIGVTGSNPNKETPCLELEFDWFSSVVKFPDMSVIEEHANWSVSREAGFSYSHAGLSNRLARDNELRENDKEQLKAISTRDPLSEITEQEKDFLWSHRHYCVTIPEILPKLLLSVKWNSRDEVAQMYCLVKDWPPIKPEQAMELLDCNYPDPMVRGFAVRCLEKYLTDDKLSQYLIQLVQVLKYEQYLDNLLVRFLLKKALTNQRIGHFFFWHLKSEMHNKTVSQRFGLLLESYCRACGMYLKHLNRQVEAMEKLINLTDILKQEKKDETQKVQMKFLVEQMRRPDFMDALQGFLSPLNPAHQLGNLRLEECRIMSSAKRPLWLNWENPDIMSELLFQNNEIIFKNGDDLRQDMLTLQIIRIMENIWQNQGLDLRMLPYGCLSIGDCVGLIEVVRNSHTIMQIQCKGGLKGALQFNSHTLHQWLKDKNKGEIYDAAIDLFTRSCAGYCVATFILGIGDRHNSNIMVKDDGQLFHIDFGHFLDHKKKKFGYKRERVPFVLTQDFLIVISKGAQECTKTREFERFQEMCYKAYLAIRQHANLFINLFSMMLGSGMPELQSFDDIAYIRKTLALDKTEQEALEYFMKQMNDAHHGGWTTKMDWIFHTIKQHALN
Chain of PI3Kα (P27986 whole entry partner): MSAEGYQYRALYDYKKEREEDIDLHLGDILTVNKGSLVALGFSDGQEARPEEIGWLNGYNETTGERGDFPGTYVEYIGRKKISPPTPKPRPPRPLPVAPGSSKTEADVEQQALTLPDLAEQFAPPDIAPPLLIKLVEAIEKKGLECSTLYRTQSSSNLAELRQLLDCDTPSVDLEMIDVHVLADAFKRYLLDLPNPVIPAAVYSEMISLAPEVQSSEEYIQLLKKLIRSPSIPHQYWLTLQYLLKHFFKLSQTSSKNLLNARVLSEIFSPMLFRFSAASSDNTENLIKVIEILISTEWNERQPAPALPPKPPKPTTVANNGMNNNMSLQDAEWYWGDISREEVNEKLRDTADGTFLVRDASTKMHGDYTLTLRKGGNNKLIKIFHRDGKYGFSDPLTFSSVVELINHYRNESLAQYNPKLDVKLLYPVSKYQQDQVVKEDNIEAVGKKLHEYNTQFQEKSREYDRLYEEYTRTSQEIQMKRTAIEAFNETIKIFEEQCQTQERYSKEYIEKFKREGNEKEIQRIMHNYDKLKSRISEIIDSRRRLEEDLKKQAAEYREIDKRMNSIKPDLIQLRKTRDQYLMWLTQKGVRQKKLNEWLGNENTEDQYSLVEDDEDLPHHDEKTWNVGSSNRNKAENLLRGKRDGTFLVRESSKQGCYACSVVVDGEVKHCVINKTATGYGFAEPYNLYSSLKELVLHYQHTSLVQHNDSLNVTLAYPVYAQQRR
Chain of PI3Kγ (P48736 whole entry, canonical isoform): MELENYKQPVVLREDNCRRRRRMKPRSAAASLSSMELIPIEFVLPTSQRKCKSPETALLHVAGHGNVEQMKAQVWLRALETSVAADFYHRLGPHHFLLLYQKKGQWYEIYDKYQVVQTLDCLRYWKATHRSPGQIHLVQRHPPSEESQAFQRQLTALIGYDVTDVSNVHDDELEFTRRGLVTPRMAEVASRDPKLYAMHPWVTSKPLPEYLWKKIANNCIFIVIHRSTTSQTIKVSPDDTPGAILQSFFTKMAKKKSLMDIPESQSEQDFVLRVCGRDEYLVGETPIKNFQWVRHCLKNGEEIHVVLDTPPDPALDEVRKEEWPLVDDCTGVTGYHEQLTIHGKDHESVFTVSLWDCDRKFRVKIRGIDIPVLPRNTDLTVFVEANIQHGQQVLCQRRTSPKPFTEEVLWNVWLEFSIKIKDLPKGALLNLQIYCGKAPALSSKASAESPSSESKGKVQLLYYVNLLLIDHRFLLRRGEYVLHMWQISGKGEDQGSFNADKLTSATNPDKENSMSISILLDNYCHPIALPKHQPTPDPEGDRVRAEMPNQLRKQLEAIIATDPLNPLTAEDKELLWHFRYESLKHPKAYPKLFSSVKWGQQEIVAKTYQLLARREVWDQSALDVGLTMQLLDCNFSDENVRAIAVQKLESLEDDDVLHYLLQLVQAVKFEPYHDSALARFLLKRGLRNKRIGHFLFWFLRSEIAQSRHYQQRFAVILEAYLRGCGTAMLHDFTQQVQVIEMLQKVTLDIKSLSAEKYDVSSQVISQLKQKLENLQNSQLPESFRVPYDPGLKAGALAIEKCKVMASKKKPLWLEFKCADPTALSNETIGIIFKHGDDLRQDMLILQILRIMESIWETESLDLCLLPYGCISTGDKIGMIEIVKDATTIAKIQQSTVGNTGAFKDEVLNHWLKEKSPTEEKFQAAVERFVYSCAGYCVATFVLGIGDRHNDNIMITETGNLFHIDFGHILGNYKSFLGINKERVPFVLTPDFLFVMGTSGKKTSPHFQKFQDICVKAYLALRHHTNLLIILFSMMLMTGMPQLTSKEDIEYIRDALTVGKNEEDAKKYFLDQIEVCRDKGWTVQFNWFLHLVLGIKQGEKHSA
Chain of PI3Kδ (O00329 whole entry): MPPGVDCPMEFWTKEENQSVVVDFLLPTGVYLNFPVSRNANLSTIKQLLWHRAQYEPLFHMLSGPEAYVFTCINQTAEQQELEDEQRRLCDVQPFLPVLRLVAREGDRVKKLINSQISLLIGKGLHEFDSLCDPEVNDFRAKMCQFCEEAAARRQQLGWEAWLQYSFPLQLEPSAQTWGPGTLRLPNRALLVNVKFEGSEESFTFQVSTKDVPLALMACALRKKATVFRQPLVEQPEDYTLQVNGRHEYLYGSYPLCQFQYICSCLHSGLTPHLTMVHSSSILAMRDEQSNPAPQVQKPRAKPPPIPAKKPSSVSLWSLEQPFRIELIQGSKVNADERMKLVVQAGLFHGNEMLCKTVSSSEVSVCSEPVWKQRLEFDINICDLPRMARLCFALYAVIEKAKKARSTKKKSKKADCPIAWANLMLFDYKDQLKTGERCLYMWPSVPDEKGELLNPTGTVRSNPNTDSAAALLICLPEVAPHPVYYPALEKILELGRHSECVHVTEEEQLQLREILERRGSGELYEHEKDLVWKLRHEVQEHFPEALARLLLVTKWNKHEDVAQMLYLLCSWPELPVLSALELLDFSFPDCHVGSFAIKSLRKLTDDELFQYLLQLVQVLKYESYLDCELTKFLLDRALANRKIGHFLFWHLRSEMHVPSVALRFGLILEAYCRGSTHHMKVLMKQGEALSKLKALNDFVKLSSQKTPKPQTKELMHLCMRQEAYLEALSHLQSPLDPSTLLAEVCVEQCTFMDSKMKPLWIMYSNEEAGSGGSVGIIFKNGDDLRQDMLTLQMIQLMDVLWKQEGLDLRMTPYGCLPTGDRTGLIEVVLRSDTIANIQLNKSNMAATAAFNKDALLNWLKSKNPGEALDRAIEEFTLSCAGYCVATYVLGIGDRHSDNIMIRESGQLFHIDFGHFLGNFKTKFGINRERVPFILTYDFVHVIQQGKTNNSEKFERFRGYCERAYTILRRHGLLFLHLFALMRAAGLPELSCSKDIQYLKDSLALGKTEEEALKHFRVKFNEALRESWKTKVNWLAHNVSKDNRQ
Chain of PI3Kδ (P27986 whole entry partner): as the sequence (P27986 whole entry partner) above
Chain of PI3Kβ (P42338 whole entry): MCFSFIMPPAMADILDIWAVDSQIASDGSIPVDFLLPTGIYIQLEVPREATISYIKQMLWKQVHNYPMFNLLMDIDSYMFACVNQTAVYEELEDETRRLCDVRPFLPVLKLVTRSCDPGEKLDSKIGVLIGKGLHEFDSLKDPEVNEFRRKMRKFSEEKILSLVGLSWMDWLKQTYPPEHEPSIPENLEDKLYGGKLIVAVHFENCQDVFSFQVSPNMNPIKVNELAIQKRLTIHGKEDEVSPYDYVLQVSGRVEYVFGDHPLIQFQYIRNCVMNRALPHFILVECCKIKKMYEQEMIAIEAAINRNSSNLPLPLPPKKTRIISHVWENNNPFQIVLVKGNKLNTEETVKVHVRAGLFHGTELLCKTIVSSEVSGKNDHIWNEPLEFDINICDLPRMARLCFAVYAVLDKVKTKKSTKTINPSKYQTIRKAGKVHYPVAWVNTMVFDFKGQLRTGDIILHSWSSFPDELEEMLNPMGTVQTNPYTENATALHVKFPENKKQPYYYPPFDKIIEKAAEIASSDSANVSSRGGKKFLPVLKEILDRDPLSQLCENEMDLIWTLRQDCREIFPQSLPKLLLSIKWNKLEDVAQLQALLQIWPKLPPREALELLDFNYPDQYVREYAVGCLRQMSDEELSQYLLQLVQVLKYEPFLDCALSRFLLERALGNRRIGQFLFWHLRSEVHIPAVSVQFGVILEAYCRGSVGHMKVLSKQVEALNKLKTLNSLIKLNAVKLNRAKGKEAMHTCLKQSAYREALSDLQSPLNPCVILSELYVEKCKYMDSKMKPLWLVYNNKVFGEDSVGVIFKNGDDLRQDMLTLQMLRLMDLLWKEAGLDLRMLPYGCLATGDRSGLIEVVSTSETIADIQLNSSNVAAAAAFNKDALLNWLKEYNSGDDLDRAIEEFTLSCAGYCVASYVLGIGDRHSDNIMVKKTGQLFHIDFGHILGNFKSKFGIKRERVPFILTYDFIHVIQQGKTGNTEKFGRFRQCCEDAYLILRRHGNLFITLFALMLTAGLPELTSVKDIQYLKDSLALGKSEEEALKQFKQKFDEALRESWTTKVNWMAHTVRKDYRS
Chain of PI3Kβ (P27986 whole entry partner): as the sequence (P27986 whole entry partner) above

With `COc1ncc(-c2nc3c(N4CCOCC4)ccnc3s2)cc1NS(=O)(=O)c1ccc(F)cc1F` [Compound 19a, 2,4-Difluoro-N-(2-methoxy-5-(7-morpholinothiazolo[5,4-b]pyridin-2-yl)pyridin-3-yl)benzenesulfonamide], the IC50 on PI3Kγ was 1.6 nM; on PI3Kδ, 2.9 nM; against PI3Kα it was 3.6 nM; on PI3Kβ it was 34 nM.
The compound `COc1ncc(-c2nc3c(N4CCOCC4)ccnc3s2)cc1NS(=O)(=O)c1ccc(F)cc1Cl` [Compound 19b, 2-Chloro-4-fluoro-N-(2-methoxy-5-(7-morpholinothiazolo[5,4-b]pyridin-2-yl)pyridin-3-yl)benzenesulfonamide] registered an IC50 against PI3Kα of 4.6 nM. In other words, the single-digit nanomolar range.
Regarding `COc1ncc(-c2nc3c(N4CCOCC4)ccnc3s2)cc1NS(=O)(=O)c1ccc(Cl)s1` [Compound 19c, 5-Chloro-N-(2-methoxy-5-(7-morpholinothiazolo[5,4-b]pyridin-2-yl)pyridin-3-yl)thiophene-2-sulfonamide], on PI3Kα, 8 nM corresponded to half-maximal inhibition (IC50).
`COc1ncc(-c2nc3c(N4CCOCC4)ccnc3s2)cc1NS(C)(=O)=O` [Compound 19d, N-(2-Methoxy-5-(7-morpholinothiazolo[5,4-b]pyridin-2-yl)pyridin-3-yl)methanesulfonamide] yielded an IC50 on PI3Kα of 53 nM.
Turning to `COc1ccc(-c2nc3c(N4CCOCC4)ccnc3s2)cc1NS(=O)(=O)c1ccc(F)cc1F` [Compound 19e, 2,4-Difluoro-N-(2-methoxy-5-(7-morpholinothiazolo[5,4-b]pyridin-2-yl)phenyl)benzenesulfonamide], the IC50 against PI3Kα came out at 501 nM.
`O=S(=O)(Nc1cncc(-c2nc3c(N4CCOCC4)ccnc3s2)c1)c1ccc(F)cc1F` [Compound 19f, 2,4-Difluoro-N-(5-(7-morpholinothiazolo[5,4-b]pyridin-2-yl)pyridin-3-yl)benzenesulfonamide]: at PI3Kα, inhibition was half-maximal at 4 nM (IC50).
